Data from patent publication US20010053796A1, “Delta-aminolevulinic acid for prevention and treatment of infection microorganisms and parasite” (priority 2000, published 2001).

Legend:
[1] = test system: CHSE (Chinook Salmon Embryo); settings: 24 h
Procedure: δ-aminolevulinic acid feed were prepared to 1.0 M concentration (0. 167 g/mL HBSS) and diluted by 10-fold dilution method. 100 μl of each fish cell line suspension of 2.5×10^5 were placed into 96-well microplate and then, 100 μl of each of the resulting diluted solution, 4 well/dilution unit, were added respectively. Fish cell lines, which were used for this cell toxicity experiment of δ-aminolevulinic acid, were RTG-2 (Rainbow Trout Gonad), FHM (Fathead Minnow Epithelioma) and CHSE (Chinook Salmon Embryo) lotted out from Dr. M. Yoshimizu of the Department of Fisheries, Hokkaido University, Japan. For these experimental cells, 100 U/mL penicillin (Sigma), 100 μl/mL streptomycin (Sigma) and MEM media supplemented with 5% fetal bovine serum (FBS, Gibco) for cell culture were used. Cultured cells in 96-well microplate was incubated for 3 hrs at 15° C. and δ-aminolevulinic acid were added to wells at amounts of 100 μl of 0, 1.0, 10, 50 and 100 mM and incubated for 24 hrs at 18° C. As a control group, instead of δ-aminolevulinic acid, HBSS was added at the same amount. […] Absorbance was measured with an ELISA reader at 570 μl.

Pseudomonas sp. = experiment: Prevention effect for artificial infection (abdominal injection of bacteria); type: in vivo, Sebastes schlegeli; settings: for Mortality during Cultivation: dead of 20 fish
Procedure: (§1) The water temperature was maintained at 20° C. (±2° C. ) throughout the experiment.
(§2) As the same method of above Experiment 1, fishes of both control group and experiment group were prepared and artificially infected by direct abdominal injection of Edwardsiella tarda 10^5 CFU per 1 fish. Each experimental fish was moved to fish tanks for monitoring and monitored for mortality according to infection for 2 weeks and viability after 2 weeks.
Bastardhalibut and Sebastes schlegeli were infected by Pseudomonas sp. through abdominal injection with the same method of fish breeding; δ-aminolevulinic acid treatment and artificial infection carried out in Experiment 1 and 2. Each experimental fish was moved to fish tanks for monitoring and monitored for mortality according to infection for 2 weeks.

Staphylococcus sp. = experiment: as above; type: in vivo, Sebastes schlegeli; settings: for Mortality during Cultivation: dead of 20 fish
Procedure: The water temperature was maintained at 20° C. (±2° C. ) throughout the experiment. […]
Bastardhalibut and Sebastes schlegeli were infected by Staphylococcus sp. by abdominal injection with the same method of fish breeding δ-aminolevulinic acid treatment and artificial infection carried out in Experiment 1 and 2. Each experimental fish was moved to fish tanks for monitoring and monitored for mortality according to infection for 2 weeks.

Vibrio anguillarum = experiment: as above; type: in vivo, Bastardhalibut; settings: for Mortality during Cultivation: dead of 20 fish
Procedure: as §1, §2
Bastardhalibut and Sebastes schlegeli were infected by Vibrio anguillarum through abdominal injection with the same method of fish breeding; δ-aminolevulinic acid treatment and artificial infection carried out in Experiment 1 and 2.

[2] = orally, 1.0 ppm in feed, Sebastes schlegeli
[3] = orally, 10 ppm in feed, Sebastes schlegeli
[4] = orally, 100 ppm in feed, Sebastes schlegeli
[5] = to fish tanks, 0.01 ppm, Sebastes schlegeli
[6] = to fish tanks, 0.1 ppm, Sebastes schlegeli
[7] = to fish tanks, 1.0 ppm, Sebastes schlegeli

Q: With NCC(=O)CCC(=O)O [δ-aminolevulinic acid] as the compound, how does the “safe range of toxicity” value [1] read?
A: The value was “below 10 mM”.

Q: And the Viability (Pseudomonas sp.; orally, 0.1 ppm in feed)?
A: The Viability was 60%.

Q: What about the “Mortality during Cultivation” value (Pseudomonas sp.; orally, 0.1 ppm in feed) of the same compound?
A: The value was 8.

Q: And the Viability (Pseudomonas sp.; [2])?
A: The Viability was 60%.

Q: And the “Mortality during Cultivation” value (Pseudomonas sp.; [2])?
A: Its value is 8.

Q: And the Viability (Pseudomonas sp.; [3])?
A: Its Viability is 85%.

Q: What about the “Mortality during Cultivation” value (Pseudomonas sp.; [3]) of the same compound?
A: Its value is 3.

Q: What about the Viability (Pseudomonas sp.; [4]) of the same compound?
A: Its Viability is 85%.

Q: And the “Mortality during Cultivation” value (Pseudomonas sp.; [4])?
A: The value was 3.

Q: And the Viability (Pseudomonas sp.; [5])?
A: Its Viability is 55%.

Q: What about the “Mortality during Cultivation” value (Pseudomonas sp.; [5]) of the same compound?
A: The value was 9.

Q: And the Viability (Pseudomonas sp.; [6])?
A: Its Viability is 55%.

Q: And the “Mortality during Cultivation” value (Pseudomonas sp.; [6])?
A: Its value is 9.

Q: And the Viability (Pseudomonas sp.; [7])?
A: The Viability was 85%.

Q: And the “Mortality during Cultivation” value (Pseudomonas sp.; [7])?
A: The value was 3.

Q: What about the Viability (Pseudomonas sp.; to fish tanks, 10 ppm) of the same compound?
A: Its Viability is 90%.

Q: What about the “Mortality during Cultivation” value (Pseudomonas sp.; to fish tanks, 10 ppm) of the same compound?
A: Its value is 2.

Q: What about the Viability (Staphylococcus sp.; orally, 0.1 ppm in feed) of the same compound?
A: Its Viability is 50%.

Q: What about the “Mortality during Cultivation” value (Staphylococcus sp.; orally, 0.1 ppm in feed) of the same compound?
A: The value was 10.

Q: What about the Viability (Staphylococcus sp.; orally, 1.0 ppm in feed) of the same compound?
A: The Viability was 55%.

Q: And the “Mortality during Cultivation” value (Staphylococcus sp.; orally, 1.0 ppm in feed)?
A: The value was 9.

Q: What about the Viability (Staphylococcus sp.; orally, 10 ppm in feed) of the same compound?
A: Its Viability is 90%.

Q: What about the “Mortality during Cultivation” value (Staphylococcus sp.; orally, 10 ppm in feed) of the same compound?
A: The value was 2.

Q: And the Viability (Staphylococcus sp.; orally, 100 ppm in feed)?
A: Its Viability is 90%.

Q: What about the “Mortality during Cultivation” value (Staphylococcus sp.; orally, 100 ppm in feed) of the same compound?
A: The value was 2.

Q: What about the Viability (Staphylococcus sp.; to fish tanks, 0.01 ppm) of the same compound?
A: The Viability was 60%.

Q: What about the “Mortality during Cultivation” value (Staphylococcus sp.; to fish tanks, 0.01 ppm) of the same compound?
A: Its value is 8.

Q: And the Viability (Staphylococcus sp.; to fish tanks, 0.1 ppm)?
A: The Viability was 65%.

Q: And the “Mortality during Cultivation” value (Staphylococcus sp.; to fish tanks, 0.1 ppm)?
A: The value was 7.

Q: And the Viability (Staphylococcus sp.; to fish tanks, 1.0 ppm)?
A: The Viability was 95%.

Q: What about the “Mortality during Cultivation” value (Staphylococcus sp.; to fish tanks, 1.0 ppm) of the same compound?
A: Its value is 1.

Q: And the Viability (Staphylococcus sp.; to fish tanks, 10 ppm)?
A: The Viability was 90%.

Q: And the “Mortality during Cultivation” value (Staphylococcus sp.; to fish tanks, 10 ppm)?
A: Its value is 2.

Q: What about the Viability (Vibrio anguillarum; orally, 0.1 ppm in feed) of the same compound?
A: Its Viability is 65%.

Q: What about the “Mortality during Cultivation” value (Vibrio anguillarum; orally, 0.1 ppm in feed) of the same compound?
A: The value was 7.

Q: What about the Viability (Vibrio anguillarum; orally, 1.0 ppm in feed) of the same compound?
A: Its Viability is 55%.

Q: And the “Mortality during Cultivation” value (Vibrio anguillarum; orally, 1.0 ppm in feed)?
A: Its value is 9.

Q: What about the Viability (Vibrio anguillarum; orally, 10 ppm in feed) of the same compound?
A: Its Viability is 85%.

Q: And the “Mortality during Cultivation” value (Vibrio anguillarum; orally, 10 ppm in feed)?
A: The value was 3.

Q: What about the Viability (Vibrio anguillarum; orally, 100 ppm in feed) of the same compound?
A: Its Viability is 90%.

Q: And the “Mortality during Cultivation” value (Vibrio anguillarum; orally, 100 ppm in feed)?
A: Its value is 2.

Q: And the Viability (Vibrio anguillarum; to fish tanks, 0.01 ppm)?
A: Its Viability is 65%.

Q: And the “Mortality during Cultivation” value (Vibrio anguillarum; to fish tanks, 0.01 ppm)?
A: Its value is 7.

Q: And the Viability (Vibrio anguillarum; to fish tanks, 0.1 ppm)?
A: The Viability was 65%.

Q: What about the “Mortality during Cultivation” value (Vibrio anguillarum; to fish tanks, 0.1 ppm) of the same compound?
A: The value was 7.

Q: What about the Viability (Vibrio anguillarum; to fish tanks, 1.0 ppm) of the same compound?
A: Its Viability is 80%.

Q: And the “Mortality during Cultivation” value (Vibrio anguillarum; to fish tanks, 1.0 ppm)?
A: The value was 2.

Q: What about the Viability (Vibrio anguillarum; to fish tanks, 10 ppm) of the same compound?
A: Its Viability is 85%.

Q: What about the “Mortality during Cultivation” value (Vibrio anguillarum; to fish tanks, 10 ppm) of the same compound?
A: Its value is 3.
